In patent US20070037253A1, “Methods and compositions for treatment of arthritis and cancer” (priority 2003, published 2007):
“Also recorded” adds a separate entry of the source. Where a SMILES comes first, the peptide text is derived from it.

Tests used:
[1] = biological target: T1, purified human synovial sPLA2 (human Type IIA sPLA2) (Homo sapiens, UniProt P14555); assay: sPLA2 inhibition, 3H-arachidonate-labelled E. coli membrane assay; format: biochemical; conditions: fixed peptide concentration (5 μM); 3H-labelled E. coli membrane assay; read-out: % Inhibition (mean ± SD)
T1 construct: purchased Cayman Chemicals, USA
T1 sequence (P14555 21-144): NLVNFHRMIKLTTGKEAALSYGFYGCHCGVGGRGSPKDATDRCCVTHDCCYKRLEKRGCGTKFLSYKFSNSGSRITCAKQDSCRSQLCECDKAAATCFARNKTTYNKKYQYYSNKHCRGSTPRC
Protocol: In brief, [^3H] arachidonate-labeled E. coli membranes (0.005 mCi/mL; 5.8 μCi/μmol, NEN) were used as substrate, and 100 mM Tris-HCl—25 mM CaCl2, pH 7.5 solution as an assay buffer. The reaction mixture contained 20 μL of substrate, 0.85 pmole of purified human synovial sPLA2 (human Type IIA sPLA2, Cayman Chemicals, USA), and an increasing concentrations of the family of synthetic peptides derived from the sequence of PIP. The final volume of the reaction mixture was adjusted to 250 μL with an assay buffer. After incubation of the mixture (37° C., 1 h) and termination of the reaction with 750 μL of chilled PBS containing 1% BSA, microfuge tubes containing the samples were centrifuged (10,000 g at 4° C. for 15 min), and 500 μL aliquots of the supernatant taken to measure the amount of [^3H]-labeled arachidonate released from the E. coli membrane using liquid scintillation counting (Multipurpose Scintillation Counter LS 6500; Beckman, USA). As controls, sPLA2 was pre-incubated with the assay buffer alone. All samples, including controls, were performed in triplicate and plotted as the percentage inhibition relative to negative controls.
A sigmoid dose response curve was generated to allow calculation of the IC50 values. All samples were performed in triplicate. Results were analyzed by nonlinear regression with GraphPad Prism (version 2.01) and expressed as the percentage of inhibition relative to control values.

MMP-2 = biological target: T2, MMP-2 (Homo sapiens, UniProt P08253); assay: Gelatin zymography of human synovial fluid pre-incubated with inhibitors; format: biochemical; conditions: 5 or 10 μM, pre-incubated 37° C. 1 h
T2 construct: from tissue; host or cells: human synovial fluid
T2 sequence (P08253 110-660): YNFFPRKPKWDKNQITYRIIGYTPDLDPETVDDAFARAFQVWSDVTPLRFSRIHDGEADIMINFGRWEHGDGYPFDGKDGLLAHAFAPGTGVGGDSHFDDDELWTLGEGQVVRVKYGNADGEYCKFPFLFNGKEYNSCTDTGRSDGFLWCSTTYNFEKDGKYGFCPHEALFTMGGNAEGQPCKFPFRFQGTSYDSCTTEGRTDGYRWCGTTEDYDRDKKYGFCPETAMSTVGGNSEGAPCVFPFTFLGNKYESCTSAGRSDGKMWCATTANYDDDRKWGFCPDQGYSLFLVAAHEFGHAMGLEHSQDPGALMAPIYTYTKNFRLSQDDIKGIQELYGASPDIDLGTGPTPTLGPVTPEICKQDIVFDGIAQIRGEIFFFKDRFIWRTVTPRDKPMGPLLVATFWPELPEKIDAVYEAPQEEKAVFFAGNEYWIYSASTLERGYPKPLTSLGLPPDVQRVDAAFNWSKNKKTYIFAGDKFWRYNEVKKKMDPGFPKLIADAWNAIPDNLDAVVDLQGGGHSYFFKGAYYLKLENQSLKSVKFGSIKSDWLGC
Protocol: (§1) (A) Samples containing human synovial fluid (5 μL) and 5 or 10 μM of peptides were pre-incubated at 37° C. for 1 h in Tris-HCl buffer prior to electrophoresis on 10% SDS-PAGE gel containing gelatin (0.1%). […] (B) The mean density (OD/mm2)±SD (n=3), representing MMP-2 activity, obtained by scanning the zymograms using the GS-710 calibrated imaging densitometer (Bio Rad, USA).
(§2) Gelatin zymography: human synovial fluid, purified human recombinant MMP-2 and -9 or APMA-activated concentrated culture supernatant samples (10 μL) was mixed (1:1) with Laemmli sample buffer, loaded on 4% acrylamide stacking gel and electrophoresed (120 V) at 4° C. on a 10% acrylamide-resolving minigel containing 0.1% gelatin. After electrophoresis for 1 h, the gels were soaked in 2.5% Triton X-100 on a shaker for 1 h, changing the solution after 30 min, to eliminate SDS. After overnight incubation in zymogen activation buffer [50 mM Tris-HCl, pH 7.5, containing 10 mM CaCl2 and 5 mM ZnCl2] at 37° C., the gels were rinsed in distilled water, and stained for 3 hr with […], after which clear bands of digested gelatin were clearly visible. The gels were briefly rinsed in distilled water and scanned by the Bio-Rad GS-710 Calibrated Imaging Densitometer.

MMP-9 = biological target: T3, MMP-9 (Homo sapiens, UniProt P14780); assay: as above; format: biochemical; conditions: co-incubated 1 h
T3 construct: Samples containing human synovial fluid (5 μL) and 5 or 10 μM of peptides were pre-incubated; from tissue; host or cells: human synovial fluid
Protocol: as §1, §2

[2] = biological target: T4, MMP-1, secreted from IL-1 β-stimulated rabbit synovial fibroblasts (Oryctolagus cuniculus, UniProt P13943); assay: Secreted MMP-1 activity of IL-1β-stimulated rabbit synovial fibroblasts; format: cell-based
T4 construct: endogenous in cells; host or cells: HIG-82 rabbit fibroblast-like synoviocytes (ATCC CRL-1832)
T4 sequence (P13943 99-468): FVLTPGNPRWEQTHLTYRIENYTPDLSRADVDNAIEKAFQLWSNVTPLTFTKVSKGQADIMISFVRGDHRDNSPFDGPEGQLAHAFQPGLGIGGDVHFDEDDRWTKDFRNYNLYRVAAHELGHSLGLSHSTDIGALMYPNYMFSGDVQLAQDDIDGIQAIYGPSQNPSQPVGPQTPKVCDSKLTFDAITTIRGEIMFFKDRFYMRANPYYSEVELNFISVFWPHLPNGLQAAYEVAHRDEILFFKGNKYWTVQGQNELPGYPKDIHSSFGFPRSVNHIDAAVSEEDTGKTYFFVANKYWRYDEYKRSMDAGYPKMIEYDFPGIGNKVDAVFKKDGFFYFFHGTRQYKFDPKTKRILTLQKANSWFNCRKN
Protocol: FLSC culture and inhibition of extracellular MMP activity: All experiments were performed on HIG-82 rabbit fibroblast-like synoviocytes (FLSCs) obtained from American Type Culture Collection (Manassas, Va.; catalogue No. CRL-1832). FLSCs were grown in Ham's F-12 medium containing 10% fetal bovine serum (FBS) and 1% penicillin/streptomycin, as recommended by the supplier. For experimental purposes, FLSCs were seeded into 12-well plates, grown to near confluence, and then serum starved (Ham's F-12 without FBS or penicillin/streptomycin) for 16 h. After serum starvation of FLSCs, supernatants were removed and replaced with fresh Ham's F-12 medium for 60 min at 37° C./5% CO2 before incubation for 2 h with various concentrations (1-10 μM) of test inhibitor peptides: P-NT.II, PIP [59-67] monomer and dimer. FLSCs were then stimulated for 24 h with IL-1β (10 ng/mL), and the supernatants concentrated by centrifugation in Centricon centrifugal filter devices (M.W. cutoff 30,000) for 35 min at 5000 rpm at 4° C. After activation with APMA (1 mM final concentration), the samples were measured for MMP-1 activity using BIOMOL AK-404 QuantiZyme Assay system, and for MMP-2 and -9 activities by gelatin zymography.

T3 sequence (P14780 94-707): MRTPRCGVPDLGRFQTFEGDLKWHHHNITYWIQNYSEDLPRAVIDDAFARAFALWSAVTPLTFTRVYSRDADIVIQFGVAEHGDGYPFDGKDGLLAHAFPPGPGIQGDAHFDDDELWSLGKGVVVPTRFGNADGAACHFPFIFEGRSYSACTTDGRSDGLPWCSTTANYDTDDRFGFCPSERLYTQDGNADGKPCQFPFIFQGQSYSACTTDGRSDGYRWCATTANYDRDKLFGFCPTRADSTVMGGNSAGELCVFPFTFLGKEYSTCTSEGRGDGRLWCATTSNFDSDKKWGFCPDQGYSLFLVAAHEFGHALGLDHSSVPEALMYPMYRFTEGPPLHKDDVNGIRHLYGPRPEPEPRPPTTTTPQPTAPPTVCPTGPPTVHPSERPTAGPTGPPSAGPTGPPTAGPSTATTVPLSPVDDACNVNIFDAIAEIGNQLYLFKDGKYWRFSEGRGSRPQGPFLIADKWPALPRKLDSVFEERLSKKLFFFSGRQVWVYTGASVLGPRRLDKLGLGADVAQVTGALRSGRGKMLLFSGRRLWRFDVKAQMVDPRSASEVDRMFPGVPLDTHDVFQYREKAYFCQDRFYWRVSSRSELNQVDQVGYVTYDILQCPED

CC[C@H](C)[C@H](NC(=O)[C@H](CC(=O)O)NC(=O)[C@@H](N)C(C)C)C(=O)N[C@@H](Cc1c[nH]cn1)C(=O)N[C@H](C(=O)N[C@@H](Cc1c[nH]c2ccccc12)C(=O)N[C@@H](CC(=O)O)C(=O)NCC(=O)N[C@H](C(=O)N[C@H](C(=O)N[C@@H](CC(=O)O)C(=O)N[C@H](C(=O)N[C@@H](Cc1c[nH]cn1)C(=O)N[C@H](C(=O)N[C@@H](Cc1c[nH]c2ccccc12)C(=O)N[C@@H](CC(=O)O)C(=O)NCC(=O)N[C@H](C(=O)O)C(C)C)C(C)C)[C@@H](C)CC)C(C)C)C(C)C)C(C)C [PIP [59-67] dimer] (H-VDIHVWDGVVDIHVWDGV-OH; N-terminus and C-terminus assumed)
inhibition at 5 µM [1]: 74.5 ± 4.21%
MMP-2 gelatinase activity (zymogram densitometry) vs control (MMP-2): did not show any significant difference from the control; also recorded: insignificant
MMP-9 gelatinase activity vs control (MMP-9): insignificant
enzyme activity of secreted MMP-1 [2]: markedly inhibited
